Measured values taken from patent US11485720B2, “Anti-infective agents” (University of Dundee, priority 2016, dated 2022).

How the values were obtained:
Format in all cases: cell-based
Hep G2 = Hep G2 in-vitro cytotoxicity assay; conditions: Homo sapiens, HepG2, read-out: Hs HEPG2 pEC50 (converted)
How it was run: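 Hep G2 human hepatocyte carcinoma cells serve as a general mammalian cell toxicity indicator, following the Mersch-Sundermann procedure.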

THP-1 cells = assay: THP-1 host cell count in intramacrophage Leishmania assay; conditions: Homo sapiens, host cell toxicity, read-out: THP1 pEC50 (converted)
Method: The intramacrophage Leishmania assay was performed as described in de Rycker et al (Antimicrob Agents Chemother, 2013 July; 57(7):2913-22. doi: 10.1128/AAC.02398-12). Briefly, 1 μl of compound was pre-dispensed into 384 well sterile intermediary plates. For single point screening, amphotericin B was added to all wells of column 24 as a positive control (final concentration 2 μM) and DMSO to column 23. For potency determinations, ten-point, one in three dilution curves were created with the highest concentration being 50 μM and on each plate a control curve of amphotericin B was included. Controls were as follows: columns 11 and 12: DMSO, columns 23 and 24: amphotericin B (final concentration 2 μM). To the intermediary plates, 100 μl of THP-1 media was added and plates were shaken for >5 min to ensure complete mixing. THP-1 cells (8,000 per well, 50 μl) were plated into black clear-bottom 384 well plates (Corning) in presence of 10 nM PMA. After 20 min at room temperature, the plates were incubated at 37° C. under 5% CO2 in a humidified incubator for 75 h. The cells were then washed with […] sterile phosphate buffered saline (PBS) supplemented with 1 mM CaCl2, 0.5 mM MgCl2, 0.1% (w/v) bovine serum albumin (PBS-A) and amastigotes were added to all wells at a multiplicity of infection of 5 (40,000 amastigotes per well). After 40 min at room temperature, plates were returned to the incubator. Amastigotes were incubated in the presence of macrophages for 16 h. Any remaining extracellular amastigotes were subsequently removed with an overflow wash of 1 ml PBS-A per well (wash buffer is being aspirated from the top of the well as it is being dispensed) followed by addition of 25 μl of the compound pre-dilutions using a Matrix Hydra DT pipetting station. The final dilution of each compound was 200-fold. Plates were incubated for 72 h and then washed (250 μl PBS-A) and fixed (4% (v/v) formaldehyde-PBS, 30 min, room temperature). After fixation, the wells were washed with 250 μl PBS, stained (10 μg/ml DAPI, 0.4 μg ml-1 HCS Cellmask Deep Red in PBS+0.1% (v/v) Triton X-100, 30 min, room temperature) and washed with 250 μl PBS. Finally, PBS+0.05% (v/v) thimerosal was added to the wells, the plates were sealed and imaged on a high-content microscope (GE IN Cell 1000 or GE IN Cell 2000) using a 10× objective. Image analysis was carried out with GE IN Cell Analyzer 1000 Workstation using the “Multi Target Analysis” module. Settings for segmentation were as follows: nuclei: minimum area: 142.384 μm^2, sensitivity: 81, method: top-hat; cells: characteristic area: 2500 μm^2, sensitivity: 60, method: multiscale top-hat; organelles (amastigotes): granule size 1-3, 3 scales, sensitivity: 90, detection in entire cell. […]

Leishmania donovani [1] = assay: Leishmania donovani intramacrophage inhibition assay (Ld-INMAC); conditions: intramacrophage amastigotes in THP-1 cells, read-out: Ld-INMAC pEC50 (converted)
Method: Assay Method for Measurement of In Vitro Inhibition of Leishmania donovani.
These experiments were run in accordance with the method as detailed herein and results from these experiments are provided in the Experimental Results hereinafter.
The intramacrophage Leishmania assay was performed as described in de Rycker et al (Antimicrob Agents Chemother, 2013 July; 57(7):2913-22. doi: 10.1128/AAC.02398-12). Briefly, 1 μl of compound was pre-dispensed into 384 well sterile intermediary plates. For single point screening, amphotericin B was added to all wells of column 24 as a positive control (final concentration 2 μM) and DMSO to column 23. For potency determinations, ten-point, one in three dilution curves were created with the highest concentration being 50 μM and on each plate a control curve of amphotericin B was included. Controls were as follows: columns 11 and 12: DMSO, columns 23 and 24: amphotericin B (final concentration 2 μM). To the intermediary plates, 100 μl of THP-1 media was added and plates were shaken for >5 min to ensure complete mixing. THP-1 cells (8,000 per well, 50 μl) were plated into black clear-bottom 384 well plates (Corning) in presence of 10 nM PMA. After 20 min at room temperature, the plates were incubated at 37° C. under 5% CO2 in a humidified incubator for 75 h. The cells were then washed with […] sterile phosphate buffered saline (PBS) supplemented with 1 mM CaCl2, 0.5 mM MgCl2, 0.1% (w/v) bovine serum albumin (PBS-A) and amastigotes were added to all wells at a multiplicity of infection of 5 (40,000 amastigotes per well). After 40 min at room temperature, plates were returned to the incubator. Amastigotes were incubated in the presence of macrophages for 16 h. Any remaining extracellular amastigotes were subsequently removed with an overflow wash of 1 ml PBS-A per well (wash buffer is being aspirated from the top of the well as it is being dispensed) followed by addition of 25 μl of the compound pre-dilutions using a Matrix Hydra DT pipetting station. The final dilution of each compound was 200-fold. Plates were incubated for 72 h and then washed (250 μl PBS-A) and fixed (4% (v/v) formaldehyde-PBS, 30 min, room temperature). After fixation, the wells were washed with 250 μl PBS, stained (10 μg/ml DAPI, 0.4 μg ml-1 HCS Cellmask Deep Red in PBS+0.1% (v/v) Triton X-100, 30 min, room temperature) and washed with 250 μl PBS. Finally, PBS+0.05% (v/v) thimerosal was added to the wells, the plates were sealed and imaged on a high-content microscope (GE IN Cell 1000 or GE IN Cell 2000) using a 10× objective. Image analysis was carried out with GE IN Cell Analyzer 1000 Workstation using the “Multi Target Analysis” module. […]

Leishmania donovani [2] = assay: Ld-cAxAm-TP-pMIC assay; conditions: read-out: Ld-cAxAm-TP-pMIC pEC50 (converted)
[3] = system: Plasmodium falciparum strain 3D7; assay: Plasmodium falciparum 3D7 in vitro growth inhibition (SYBRgreen I); conditions: Plasmodium falciparum, 3D7; read-out: pEC50 for Pf 3D7 (converted)
How it was run: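 10-point, 1-in-3 dilution series from a top concentration of 50 μM; parasite growth read as SYBRgreen I fluorescence on double-stranded DNA (ex 485/em 528 nm). EC50 = concentration causing 50% parasite death, from at least 3 independent experiments.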

`O=C(NCC1CCCCC1)c1cc(=O)c2cc(F)cc(O)c2o1` [Example 70, N-(cyclohexylmethyl)-6-fluoro-8-hydroxy-4-oxo-4H-chromene-2-carboxamide] showed an EC50 (Hep G2) of 31.6 µM, an EC50 (THP-1 cells) of 50.1 µM and an EC50 (Leishmania donovani [1]) of 15.8 µM. It also gave an EC50 (Leishmania donovani [2]) of 0.794 µM and an EC50 [3] of 0.1 µM.
